Measurements taken from ChEMBL document CHEMBL4819142, “Synthesis of propargylamine mycophenolate analogues and their selective cytotoxic activity towards neuroblastoma SH-SY5Y cell line” (Bioorg Med Chem Lett, 2021).

Legend:
[1] = Cytotoxicity against human KKUM213 cells assessed as growth inhibition measured by SRB assay; type: functional, cell-based; details: KKU-M213
FaDu = test: Cytotoxicity against human FaDu cells assessed as growth inhibition measured by SRB assay; type: functional, cell-based
HT-29 = test: Cytotoxicity against human HT-29 cells assessed as growth inhibition measured by SRB assay; type: functional, cell-based
MDA-MB-231 = test: Cytotoxicity against human MDA-MB-231 cells assessed as growth inhibition measured by SRB assay; type: functional, cell-based
A549 = test: Cytotoxicity against human A549 cells assessed as growth inhibition measured by SRB assay; type: functional, cell-based
SH-SY5Y = test: Cytotoxicity against human SH-SY5Y cells assessed as growth inhibition measured by SRB assay; type: functional, cell-based
[2] = Cytotoxicity against human […] cells assessed as growth inhibition measured by SRB assay; type: cell-based

COc1c(C)c2c(c(O)c1C/C=C(\C)CCC(=O)O)C(=O)OC2 [MYCOPHENOLIC ACID]
IC50 [1]: 7.16 µM
IC50 (FaDu): 6.72 µM
IC50 (HT-29): 6.48 µM
IC50 (MDA-MB-231): 7.83 µM
IC50 (A549): 1.21 µM
IC50 (SH-SY5Y): 0.56 µM
IC50 [2]: 7.19 µM

COC(=O)CC/C(C)=C/Cc1c(OC)c(C)c2c(c1OCC#CCN1CCCC1)C(=O)OC2
IC50 [1]: > 50 µM
IC50 (FaDu): > 50 µM
IC50 (HT-29): 46.5 µM
IC50 (MDA-MB-231): > 50 µM
IC50 (A549): 35.9 µM
IC50 (SH-SY5Y): 31.1 µM
IC50 [2]: > 50 µM

COC(=O)CC/C(C)=C/Cc1c(OC)c(C)c2c(c1OCC#CCN1CCN(C(C)=O)CC1)C(=O)OC2
IC50 [1]: > 50 µM
IC50 (FaDu): > 50 µM
IC50 (HT-29): > 50 µM
IC50 (MDA-MB-231): > 50 µM
IC50 (A549): > 50 µM
IC50 (SH-SY5Y): > 50 µM
IC50 [2]: > 50 µM

COC(=O)CC/C(C)=C/Cc1c(OC)c(C)c2c(c1OCC#CCN1CCC(C(=O)OC)CC1)C(=O)OC2
IC50 [1]: > 50 µM
IC50 (FaDu): > 50 µM
IC50 (HT-29): > 50 µM
IC50 (MDA-MB-231): > 50 µM
IC50 (A549): 40.5 µM
IC50 (SH-SY5Y): 41.2 µM
IC50 [2]: > 50 µM

COC(=O)CC/C(C)=C/Cc1c(OC)c(C)c2c(c1OCC#CCN1CCN(Cc3ccc4c(c3)OCO4)CC1)C(=O)OC2
IC50 [1]: > 50 µM
IC50 (FaDu): > 50 µM
IC50 (HT-29): > 50 µM
IC50 (MDA-MB-231): > 50 µM
IC50 (A549): 45.5 µM
IC50 (SH-SY5Y): 34.8 µM
IC50 [2]: > 50 µM

COC(=O)CC/C(C)=C/Cc1c(OC)c(C)c2c(c1OCC#CCN1CCN(C(=O)C3COc4ccccc4O3)CC1)C(=O)OC2 (stereo not given)
IC50 [1]: > 50 µM
IC50 (FaDu): > 50 µM
IC50 (HT-29): > 50 µM
IC50 (MDA-MB-231): > 50 µM
IC50 (A549): > 50 µM
IC50 (SH-SY5Y): > 50 µM
IC50 [2]: > 50 µM

CCCCN(CC#CCOc1c(C/C=C(\C)CCC(=O)OC)c(OC)c(C)c2c1C(=O)OC2)CCCC
IC50 [1]: 38.2 µM
IC50 (FaDu): 30.9 µM
IC50 (HT-29): > 50 µM
IC50 (MDA-MB-231): 39.8 µM
IC50 (A549): 30.6 µM
IC50 (SH-SY5Y): 21.5 µM
IC50 [2]: 36 µM

C=CCN(CC#CCOc1c(C/C=C(\C)CCC(=O)OC)c(OC)c(C)c2c1C(=O)OC2)CC=C
IC50 [1]: > 50 µM
IC50 (FaDu): > 50 µM
IC50 (HT-29): > 50 µM
IC50 (MDA-MB-231): > 50 µM
IC50 (A549): 43.5 µM
IC50 (SH-SY5Y): 36.4 µM
IC50 [2]: 36.4 µM

COC(=O)CC/C(C)=C/Cc1c(OC)c(C)c2c(c1OCC#CCN1CCC(C(=O)O)CC1)C(=O)OC2
IC50 [1]: > 50 µM
IC50 (FaDu): > 50 µM
IC50 (HT-29): > 50 µM
IC50 (MDA-MB-231): > 50 µM
IC50 (A549): > 50 µM
IC50 (SH-SY5Y): 47.2 µM
IC50 [2]: > 50 µM

COC(=O)CC/C(C)=C/Cc1c(OC)c(C)c2c(c1OCC#CCN1CCN(C(c3ccc(F)cc3)c3ccc(F)cc3)CC1)C(=O)OC2
IC50 [1]: > 50 µM
IC50 (FaDu): > 50 µM
IC50 (HT-29): > 50 µM
IC50 (MDA-MB-231): > 50 µM
IC50 (A549): 34.1 µM
IC50 (SH-SY5Y): 25.8 µM
IC50 [2]: > 50 µM

COC(=O)CC/C(C)=C/Cc1c(OC)c(C)c2c(c1OCC#CCN1CCN(c3ccccc3OC)CC1)C(=O)OC2
IC50 [1]: > 50 µM
IC50 (FaDu): > 50 µM
IC50 (HT-29): > 50 µM
IC50 (MDA-MB-231): > 50 µM
IC50 (A549): > 50 µM
IC50 (SH-SY5Y): 43.6 µM
IC50 [2]: > 50 µM

COC(=O)CC/C(C)=C/Cc1c(OC)c(C)c2c(c1OCC#CCN1CCC(c3ccccc3)c3ccccc31)C(=O)OC2 (stereo not given)
IC50 [1]: 25.9 µM
IC50 (FaDu): 24.6 µM
IC50 (HT-29): 39.5 µM
IC50 (MDA-MB-231): 28.7 µM
IC50 (A549): 7.68 µM
IC50 (SH-SY5Y): 6.45 µM
IC50 [2]: 23.3 µM

COC(=O)CC/C(C)=C/Cc1c(OC)c(C)c2c(c1OCC#CCN1CCN(c3ccccc3F)CC1)C(=O)OC2
IC50 [1]: > 50 µM
IC50 (FaDu): > 50 µM
IC50 (HT-29): > 50 µM
IC50 (MDA-MB-231): > 50 µM
IC50 (A549): 45.3 µM
IC50 (SH-SY5Y): 35.8 µM
IC50 [2]: > 50 µM

COC(=O)CC/C(C)=C/Cc1c(OC)c(C)c2c(c1OCC#CCN1CCN(c3ncccn3)CC1)C(=O)OC2
IC50 [1]: > 50 µM
IC50 (FaDu): > 50 µM
IC50 (HT-29): > 50 µM
IC50 (MDA-MB-231): > 50 µM
IC50 (A549): > 50 µM
IC50 (SH-SY5Y): > 50 µM
IC50 [2]: > 50 µM

COC(=O)CC/C(C)=C/Cc1c(OC)c(C)c2c(c1OCC#CCN1CCC(Cc3ccccc3)CC1)C(=O)OC2
IC50 [1]: > 50 µM
IC50 (FaDu): > 50 µM
IC50 (HT-29): > 50 µM
IC50 (MDA-MB-231): > 50 µM
IC50 (A549): 40.7 µM
IC50 (SH-SY5Y): 24.5 µM
IC50 [2]: > 50 µM

COC(=O)CC/C(C)=C/Cc1c(OC)c(C)c2c(c1OCC#CCN1CCN(C(c3ccccc3)c3ccccc3)CC1)C(=O)OC2
IC50 [1]: > 50 µM
IC50 (FaDu): > 50 µM
IC50 (HT-29): > 50 µM
IC50 (MDA-MB-231): > 50 µM
IC50 (A549): 32.7 µM
IC50 (SH-SY5Y): 23.7 µM
IC50 [2]: > 50 µM

COC(=O)CC/C(C)=C/Cc1c(OC)c(C)c2c(c1OCC#CCN(CC#CCOc1c(C/C=C(\C)CCC(=O)OC)c(OC)c(C)c3c1C(=O)OC3)CCC(C)C)C(=O)OC2
IC50 [1]: 48.3 µM
IC50 (FaDu): 46.7 µM
IC50 (HT-29): > 50 µM
IC50 (MDA-MB-231): 48.6 µM
IC50 (A549): 27.5 µM
IC50 (SH-SY5Y): 20.6 µM
IC50 [2]: 48.2 µM

C#CCOc1c(C/C=C(\C)CCC(=O)OC)c(OC)c(C)c2c1C(=O)OC2
IC50 [1]: 35.7 µM
IC50 (FaDu): 15.2 µM
IC50 (HT-29): 28.8 µM
IC50 (MDA-MB-231): 49.2 µM
IC50 (A549): 31.8 µM
IC50 (SH-SY5Y): 3.07 µM
IC50 [2]: 25.2 µM

COC(=O)CC/C(C)=C/Cc1c(OC)c(C)c2c(c1OCC#CCN1CCCc3ccccc31)C(=O)OC2
IC50 [1]: > 50 µM
IC50 (FaDu): > 50 µM
IC50 (HT-29): > 50 µM
IC50 (MDA-MB-231): > 50 µM
IC50 (A549): 18 µM
IC50 (SH-SY5Y): 9.57 µM
IC50 [2]: > 50 µM

COC(=O)CC/C(C)=C/Cc1c(OC)c(C)c2c(c1OCC#CCN1CCN(c3ccccc3)CC1)C(=O)OC2
IC50 [1]: > 50 µM
IC50 (FaDu): > 50 µM
IC50 (HT-29): > 50 µM
IC50 (MDA-MB-231): > 50 µM
IC50 (A549): 22 µM
IC50 (SH-SY5Y): 9.14 µM
IC50 [2]: > 50 µM

CCCCNc1ccc(CC#CCOc2c(C/C=C(\C)CCC(=O)OC)c(OC)c(C)c3c2C(=O)OC3)cc1
IC50 [1]: 22.9 µM
IC50 (FaDu): 21.2 µM
IC50 (HT-29): 36.7 µM
IC50 (MDA-MB-231): 19.8 µM
IC50 (A549): 6.97 µM
IC50 (SH-SY5Y): 5.96 µM
IC50 [2]: 18.3 µM

COC(=O)CC/C(C)=C/Cc1c(OC)c(C)c2c(c1OCC#CCN1CCN(c3ccc(C#N)cc3)CC1)C(=O)OC2
IC50 [1]: > 50 µM
IC50 (FaDu): > 50 µM
IC50 (HT-29): > 50 µM
IC50 (MDA-MB-231): > 50 µM
IC50 (A549): > 50 µM
IC50 (SH-SY5Y): 37.8 µM
IC50 [2]: > 50 µM

COC(=O)CC/C(C)=C/Cc1c(OC)c(C)c2c(c1OCC#CCN1CCN(c3ccc(O)cc3)CC1)C(=O)OC2
IC50 [1]: > 50 µM
IC50 (FaDu): > 50 µM
IC50 (HT-29): > 50 µM
IC50 (MDA-MB-231): > 50 µM
IC50 (A549): > 50 µM
IC50 (SH-SY5Y): 46.1 µM
IC50 [2]: > 50 µM

Cc1c2ccncc2c(C)c2c1[nH]c1ccccc12 [ELLIPTECINE]
IC50 [1]: 1.97 µM
IC50 (FaDu): 1.85 µM
IC50 (HT-29): 1.95 µM
IC50 (MDA-MB-231): 2.03 µM
IC50 (A549): 1.16 µM
IC50 (SH-SY5Y): 2.13 µM
IC50 [2]: 1.89 µM

COC(=O)CC/C(C)=C/Cc1c(OC)c(C)c2c(c1OCC#CCN1CCN(Cc3ccc(Cl)cc3)CC1)C(=O)OC2
IC50 [1]: > 50 µM
IC50 (FaDu): > 50 µM
IC50 (HT-29): > 50 µM
IC50 (MDA-MB-231): > 50 µM
IC50 (A549): > 50 µM
IC50 (SH-SY5Y): 31.2 µM
IC50 [2]: > 50 µM

COC(=O)CC/C(C)=C/Cc1c(OC)c(C)c2c(c1OCC#CCN1CCN(C(c3ccccc3)c3ccc(Cl)cc3)CC1)C(=O)OC2 (stereo not given)
IC50 [1]: > 50 µM
IC50 (FaDu): > 50 µM
IC50 (HT-29): > 50 µM
IC50 (MDA-MB-231): > 50 µM
IC50 (A549): 29.1 µM
IC50 (SH-SY5Y): 9.9 µM
IC50 [2]: > 50 µM

COC(=O)CC/C(C)=C/Cc1c(O)c2c(c(C)c1OC)COC2=O
IC50 [1]: 7.45 µM
IC50 (FaDu): 6.15 µM
IC50 (HT-29): 23.7 µM
IC50 (MDA-MB-231): 9.62 µM
IC50 (A549): 0.82 µM
IC50 (SH-SY5Y): 0.26 µM
IC50 [2]: 5.82 µM

COC(=O)CC/C(C)=C/Cc1c(OC)c(C)c2c(c1OCC#CCN1CCN(CCO)CC1)C(=O)OC2
IC50 [1]: > 50 µM
IC50 (FaDu): > 50 µM
IC50 (HT-29): > 50 µM
IC50 (MDA-MB-231): > 50 µM
IC50 (A549): > 50 µM
IC50 (SH-SY5Y): 35.7 µM
IC50 [2]: > 50 µM

COC(=O)CC/C(C)=C/Cc1c(OC)c(C)c2c(c1OCC#CCN1CCOCC1)C(=O)OC2
IC50 [1]: > 50 µM
IC50 (FaDu): > 50 µM
IC50 (HT-29): > 50 µM
IC50 (MDA-MB-231): > 50 µM
IC50 (A549): > 50 µM
IC50 (SH-SY5Y): > 50 µM
IC50 [2]: > 50 µM

COC(=O)CC/C(C)=C/Cc1c(OC)c(C)c2c(c1OCC#CCN1CCN(c3ccc(C)cc3)CC1)C(=O)OC2
IC50 [1]: > 50 µM
IC50 (FaDu): > 50 µM
IC50 (HT-29): > 50 µM
IC50 (MDA-MB-231): > 50 µM
IC50 (A549): > 50 µM
IC50 (SH-SY5Y): 37.7 µM
IC50 [2]: > 50 µM
